Experimental data published in PMC9578474, “In vitro and in silico β-lactamase inhibitory properties and phytochemical profile of Ocimum basilicum cultivated in central delta of Egypt” (Pharmaceutical Biology, 2022).

Test system: T1, CTX-M β-lactamase (ESBL)
T1 construct: gene blaCTX-M
Test: nitrocefin hydrolysis colorimetric assay (kit MAK222) with cell-free lysate of ESBL-producing E. coli
Format: biochemical

COC(=O)/C=C/c1ccccc1 [Methyl cinnamate]
Value methyl cinnamate: 11.6008 µg/mL

O=C(O)[C@H]1/C(=C/CO)O[C@@H]2CC(=O)N21 [clavulanic acid]
Value clavulanic acid: 8.1223 µg/mL
